In data set [1] the test system is resistant green rice leafhopper (collected at Nakagawara). Nature of the data set: Test 3: Effect on Resistant Green Rice Leafhopper. It is filed as in vivo, Nephotettix cincticeps Uhler. Particulars: resistant, female adults, 24 hours. The method, boiled down:
(§1)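 Rice seedlings (2–3 leaves) sprayed with emulsifiable-concentrate dilutions at 100 or 20 ppm, 3 ml per pot, air-dried, then infested with 10 female adults per pot. Mortality counted after 24 h and averaged over three pots.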

Data set [2] deals with sensitive green rice leafhopper (collected at Chigasaki). Nature of the data set: Test 3: Effect on Sensitive Green Rice Leafhopper. It is filed as in vivo. Particulars: female adults, 24 hours. The essentials: as §1
The test system of the next data set is two-spotted spider mite. As to the kind of experiment: Test 6: Effect on Two-Spotted Spider mite adults. It is filed as in vivo. Conditions: 500 ppm, adults, 24 hours. The essentials: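 Kidney bean leaf discs (15 mm) on wet cotton, each holding 10 adult mites, sprayed with 3 ml of a 500 ppm dilution of an emulsifiable concentrate. Kept at 25° C; dead adults counted after 24 hours to give mortality, averaged over three discs.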

A further data set concerns male mice. Nature of the data set: Test 9: Toxicity Test (acute oral, mice). Conditions: male mice; oral, corn oil; 7 days. The essentials:
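Compound dissolved or suspended in corn oil was given orally to male mice of 19–23 g body weight, at 0.2 ml per 10 g. Deaths and effects were recorded after 7 days.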

The next data set concerns yearling carps. As to the kind of experiment: Test 8: Fish Toxicity. It is filed as in vivo. Particulars: 48 hours, concentration at which 1/2 of the test fishes were killed. Here is the method:
A water tank having a width of 60 cm, a length of 30 cm and a height of 40 cm was filled with water, and 10 yearling carps having a body length of about 5 cm were set free in the tank and adapted to the environment in the tank. A test compound was applied so that the concentration in water was 10, 1, or 0.1 ppm. After 48 hours, the numbers of killed and living carps were counted and the influences on the fishes were examined.

Data set [3] concerns second-instar larvae of tobacco cutworm. As to the kind of experiment: whole plant or invertebrate. Particulars: foliar. It is filed as in vivo. Here is the method: To a mixture of 20 parts of the compound of the present invention and 20 parts of Sorpol SM-200 (registered trademark for the product supplied by Toho Chemical Industrial Co., Ltd.) was added 60 parts of xylol, and the mixture was sufficiently blended. The obtained emulsifiable concentrate was diluted at a predetermined concentration with distilled water, and the obtained dilution was used.
An emulsifiable concentrate of a test compound prepared according to the method described in Formulation Example 1 was diluted to a concentration of 100 or 20 ppm. Among the compounds of the present invention, the following compounds were used as the test compounds: (1), (l ), (3), (4), (6), (8), (9), (10), (11), (14), (15), (16), (17), (18), (19), (20), (21), (24), (27), (28), (29), (30), (33), (34), (35), (36), (38), (39), (40), (41), (42), (43), (47), (48), (50), (51), (52), (53), (54), (55), (56), (59), (60), (62), (63), (64), (65), (66), (67) and (68). Sweetpotato leaves were immersed in the dilution for 10 seconds, air-dried and placed in a plastic cup having a diameter of 10 cm. Then second-instar larvae of tobacco cutworm were set free in the cup. The cup was allowed to stand still in a thermostat chamber maintained at 25° C. After 48 hours, the numbers of killed and living larvae were counted and the mortality was calculated. The obtained result was expressed by an average value obtained from the mortality calculated in three test cups. Compounds of (b), (f) and (h) were tested as comparative compounds in the same manner as the compounds of the present invention.

The subject of data set [4] is third-instar larvae of diamond back moth. As to the kind of experiment: Test 4: Effect on Diamond Back Moth. It is filed as in vivo. Particulars: Plutella xylostella, 24 hours. The essentials:
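Emulsifiable concentrate diluted in water to 100 or 20 ppm and sprayed at 3 ml per cup onto cabbage leaves holding 10 third-instar diamondback moth larvae. Dead and living larvae counted after 24 h; mortality averaged over three cups.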

The mark [5] stands for this setting: 20 ppm, second-instar larvae, 48 hours, read-out: Mortality (%).

Consider 5 compounds from US4599362A, “2-aryl-ethyl ether derivatives and insecticidal and acaricidal agents containing said derivatives” (priority 1980, dated 1986).

Where two headings read alike, the source gives them in different places.

One may read the mortality as the share of the test organisms that died.

Turning to “Pyrethrin [Comparative Compound (c), reference compound]”, the “Mortality (%) Green Rice Leafhopper Collected at Nakagawara” value in data set [1] (20 ppm) and in data set [1] (100 ppm) was 0% each time. The “Mortality (%) Green Rice Leafhopper Collected at Chigasaki” value in data set [2] (20 ppm) and in data set [2] (100 ppm) was 0% throughout. Further, the “Mortality (%)” value in the data set with two-spotted spider mite came out at 0%. Besides, the “Acute Toxicity at Oral Administration, LD-50” value with male mice was found to be 340 mg/kg.

Consider “3-phenoxy-α-cyanobenzyl 2,2-dimethyl-3-(2,2-dichlorovinyl)-cyclopropano-1-carboxylate [(i), reference compound]”, for which the “Fish Toxicity, TLm48” value in the data set on yearling carps was “below 0.005 ppm”.

`CNC(=O)ON=C(C)SC` [Comparative Compound (f), S-methyl N-(methylcarbamoyloxy)thioacetoamidate]: the mortality at 20 ppm in data set [3] (setting [5]) was determined as 80%. Moreover, the mortality at 100 ppm in data set [3] (100 ppm, second-instar larvae, 48 hours, read-out: Mortality (%)) was 100%.

In data set [3] (48 h), `COP(=O)(NC(C)=O)SC` (stereo not shown) [(h), O,S-dimethyl N-acetylphosphoroamidothiolate] displayed a mortality at 20 ppm of 30% and a mortality at 100 ppm of 70%.

`CC(C)C(COCc1cccc(Oc2ccccc2)c1)c1ccc(Cl)cc1` (stereo not shown) [(b), reference compound]: the mortality at 100 ppm was 50% in data set [3] (48 h) and 30% in data set [4] (100 ppm). Also, the mortality at 20 ppm in data set [3] (setting [5]) is 0%; in data set [4] (20 ppm) it was 10%. For the same compound, in the data set with two-spotted spider mite (Tetranychus urticae, read-out: Mortality (%)), the mortality at 500 ppm came out at 20%.
